Source: ChEMBL document CHEMBL4627415, “Design and Structural Optimization of Dual FXR/PPARδ Activators” (J Med Chem, 2020)
Activity calls are given as the source filed them. The rule behind the calls is not given here.

What was measured:
[1] = target: T1, Peroxisome proliferator-activated receptor alpha (Homo sapiens) (UniProt Q07869); experiment: Activation of human PPAR-alpha LBD expressed in HEK293T cells assessed as induction of receptor activation at 10 uM incubated for 12 to 14 hrs by luciferase reporter gene assay; assay type: cell-based; details: HEK-293T
T1 sequence (whole entry): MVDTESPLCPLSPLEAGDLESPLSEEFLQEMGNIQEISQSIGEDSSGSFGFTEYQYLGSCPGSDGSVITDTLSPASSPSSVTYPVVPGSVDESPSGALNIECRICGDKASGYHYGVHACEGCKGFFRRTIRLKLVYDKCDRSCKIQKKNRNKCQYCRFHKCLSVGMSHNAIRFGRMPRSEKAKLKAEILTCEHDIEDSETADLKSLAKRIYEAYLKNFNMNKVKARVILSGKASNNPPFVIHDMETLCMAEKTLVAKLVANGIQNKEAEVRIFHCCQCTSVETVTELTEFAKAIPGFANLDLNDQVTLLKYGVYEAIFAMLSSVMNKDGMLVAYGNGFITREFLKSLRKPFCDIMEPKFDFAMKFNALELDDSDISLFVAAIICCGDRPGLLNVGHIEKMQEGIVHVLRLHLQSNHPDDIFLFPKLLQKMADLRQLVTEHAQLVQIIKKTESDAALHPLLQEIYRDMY

[2] = target: T2, Peroxisome proliferator-activated receptor delta (Mus musculus) (UniProt P35396); experiment: Activation of PPARD in mouse C2C12 cells assessed as increase PCK mRNA expression at 3 uM incubated for 8 hrs by quantitative real time PCR analysis; assay type: cell-based
T2 sequence (whole entry): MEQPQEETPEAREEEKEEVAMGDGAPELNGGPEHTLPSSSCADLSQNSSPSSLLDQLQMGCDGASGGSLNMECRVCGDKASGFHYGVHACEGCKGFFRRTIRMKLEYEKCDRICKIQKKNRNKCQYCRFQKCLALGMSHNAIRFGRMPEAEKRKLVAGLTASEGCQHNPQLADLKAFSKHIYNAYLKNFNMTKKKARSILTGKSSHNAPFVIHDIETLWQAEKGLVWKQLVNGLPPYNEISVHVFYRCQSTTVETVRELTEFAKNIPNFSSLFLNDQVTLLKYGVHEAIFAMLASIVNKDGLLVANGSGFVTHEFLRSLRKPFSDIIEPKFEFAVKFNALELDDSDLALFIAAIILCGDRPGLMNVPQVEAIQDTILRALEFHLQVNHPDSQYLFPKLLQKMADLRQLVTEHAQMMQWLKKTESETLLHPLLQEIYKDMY

With `CC(C)c1onc(-c2c(Cl)cccc2Cl)c1COc1ccc(CNc2ccc(CC(=O)O)cc2)c(Cl)c1` the Activity [1] was “inactive” and the Activity [2] was “Active”.
